Results: US20160333419A1, “GENE SIGNATURES ASSOCIATED WITH SENSITIVITY TO MDM2 INHIBITORS” (DAIICHI SANKYO COMPANY, LIMITED, priority 2014, published 2016)
pIC50: −log10 of the molar value.

Assays:
Test in all cases: OncoPanel cytotoxicity assay
Type in all cases: cell-based
A375 = settings: Homo sapiens, A-375, 72 hour incubation
Description: (§1) Cells were grown in RPMI 1640, 10% FBS, 2 mM L-alanyl-L-Glutamine, 1 mM Na Pyruvate, or a special medium in a humidified atmosphere of 5% CO2 at 37° C. Cells were seeded into 384-well plates and incubated in a humidified atmosphere of 5% CO2 at 37° C. Test compounds were added 24 hours post cell seeding. At the same time, a time zero, untreated cell plate was generated as a control. After a 72 hour incubation period, cells were fixed and stained with nuclear dye to allow visualization of nuclei.
(§2) Compounds were serially diluted 3.16-fold and assayed over 10 concentrations of inhibitor in a final assay concentration of 0.1% DMSO from the highest test concentration specified in the sample information chapter. Automated fluorescence microscopy was carried out using a GE Healthcare InCell Analyzer 1000, and images were collected with a 4× objective. Twelve bit tiff images were acquired using the InCell Analyzer 1000 3.2 and analyzed with Developer Toolbox 1.6 software.
(§3) Cell proliferation was measured by the signal intensity of the incorporated nuclear dye. The cell proliferation assay output is referred to as the relative cell count. To determine the cell proliferation end point, the cell proliferation data output is transformed to percent of control (POC) using the following formula: […]
(§4) Relative cell count IC50 (IC50) is the test compound's concentration that produces 50% of the cell proliferation inhibitory response or 50% cytotoxicity level. IC50 values were calculated using nonlinear regression to fit data to a sigmoidal 4 point, 4 parameter One-Site dose response model, where: y (fit)=A+[(B−A)/(1+((C/x)̂D))]. Curve-fitting, IC50 calculations and report generation were performed using a custom data reduction engine MathIQ based software (AIM). […] In these cases, the IC50 values were expressed as 40 μM and 10 μM, respectively (Table 2).

BC-1 = settings: Homo sapiens, BC1, 72 hour incubation
Description: as §1, §2, §3, §4

BT-549 = settings: Homo sapiens, 72 hour incubation
Description: as §1, §2, §3, §4

BT474 = settings: Homo sapiens, BT-474, 72 hour incubation
Description: as §1, §2, §3, §4

C-4 II = settings: Homo sapiens, 72 hour incubation
Description: as §1, §2, §3, §4

CCF-STTG1 = settings: Homo sapiens, 72 hour incubation
Description: as §1, §2, §3, §4

CML-T1 = settings: Homo sapiens, 72 hour incubation
Description: as §1, §2, §3, §4

Capan-2 = settings: Homo sapiens, 72 hour incubation
Description: as §1, §2, §3, §4

ChaGoK1 = settings: Homo sapiens, ChaGo-K-1, 72 hour incubation
Description: as §1, §2, §3, §4

Colo 205 = settings: Homo sapiens, 72 hour incubation
Description: as §1, §2, §3, §4

EB-3 = settings: Homo sapiens, 72 hour incubation
Description: as §1, §2, §3, §4

EM-2 = settings: Homo sapiens, 72 hour incubation
Description: as §1, §2, §3, §4

ES-2 = settings: Homo sapiens, 72 hour incubation
Description: as §1, §2, §3, §4

HLE = settings: Homo sapiens, 72 hour incubation
Description: as §1, §2, §3, §4

HT-1197 = settings: Homo sapiens, HT1197, 72 hour incubation
Description: as §1, §2, §3, §4

Hs 294T = settings: Homo sapiens, 72 hour incubation
Description: as §1, §2, §3, §4

HuP-T4 = settings: Homo sapiens, 72 hour incubation
Description: as §1, §2, §3, §4

KATO III = settings: Homo sapiens, 72 hour incubation
Description: as §1, §2, §3, §4

KLE = settings: Homo sapiens, 72 hour incubation
Description: as §1, §2, §3, §4

KPL-1 = settings: Homo sapiens, 72 hour incubation
Description: as §1, §2, §3, §4

LNCaP = settings: Homo sapiens, 72 hour incubation
Description: as §1, §2, §3, §4

MC-IXC = settings: Homo sapiens, 72 hour incubation
Description: as §1, §2, §3, §4

MEG01 = settings: Homo sapiens, MEG-01, 72 hour incubation
Description: as §1, §2, §3, §4

MT-3 = settings: Homo sapiens, 72 hour incubation
Description: as §1, §2, §3, §4

MV-4-11 = settings: Homo sapiens, MV4-11, 72 hour incubation
Description: as §1, §2, §3, §4

OCUG-1 = settings: Homo sapiens, 72 hour incubation
Description: as §1, §2, §3, §4

PC-3 = settings: Homo sapiens, 72 hour incubation
Description: as §1, §2, §3, §4

Raji = settings: Homo sapiens, 72 hour incubation
Description: as §1, §2, §3, §4

SHP-77 = settings: Homo sapiens, SHP77, 72 hour incubation
Description: as §1, §2, §3, §4

SJRH30 = settings: Homo sapiens, 72 hour incubation
Description: as §1, §2, §3, §4

SJSA1 = settings: Homo sapiens, SJSA-1, 72 hour incubation
Description: as §1, §2, §3, §4

SNU-16 = settings: Homo sapiens, 72 hour incubation
Description: as §1, §2, §3, §4

SW1463 = settings: Homo sapiens, 72 hour incubation
Description: as §1, §2, §3, §4

SW403 = settings: Homo sapiens, SW-403, 72 hour incubation
Description: as §1, §2, §3, §4

SW48 = settings: Homo sapiens, 72 hour incubation
Description: as §1, §2, §3, §4

SW579 = settings: Homo sapiens, 72 hour incubation
Description: as §1, §2, §3, §4

U-138MG = settings: Homo sapiens, U138-MG, 72 hour incubation
Description: as §1, §2, §3, §4

YAPC = settings: Homo sapiens, 72 hour incubation
Description: as §1, §2, §3, §4

## CC[C@@H]1CNC2(CC2)CN1C(=O)[C@@H]1C[C@@H](F)CN1C(=O)C1=C(C(C)C)N2C(=N[C@@](C)(c3ccc(Cl)nc3)[C@H]2c2ccc(Cl)c(F)c2)S1 [Compound A, [(5R,6S)-5-(4-Chloro-3-fluorophenyl)-6-(6-chloropyridin-3-yl)-6-methyl-3-(propan-2-yl)-5,6-dihydroimidazo[2,1-b][1,3]thiazol-2-yl][(2S,4R)-2-{[(6R)-6-ethyl-4,7-diazaspiro[2.5]oct-7-yl]carbonyl}-4-fluoropyrrolidin-1-yl]methanone]
A375
  pIC50: 6.50
BC-1
  pIC50: 6.33
BT-549
  pIC50: < 4.40
BT474
  pIC50: < 4.40
C-4 II
  pIC50: < 4.40
CCF-STTG1
  pIC50: 6.27
CML-T1
  pIC50: 5.62
Capan-2
  pIC50: < 4.40
ChaGoK1
  pIC50: < 4.40
Colo 205
  pIC50: 4.44
EB-3
  pIC50: < 4.40
EM-2
  pIC50: < 4.40
ES-2
  pIC50: 4.84
HLE
  pIC50: 4.54
HT-1197
  pIC50: 6.63
Hs 294T
  pIC50: 5.91
HuP-T4
  pIC50: < 4.40
KATO III
  pIC50: 4.44
KLE
  pIC50: < 4.40
KPL-1
  pIC50: 6.34
LNCaP
  pIC50: 6.57
MC-IXC
  pIC50: 4.64
MEG01
  pIC50: < 4.40
MT-3
  pIC50: 5.95
MV-4-11
  pIC50: 6.43
OCUG-1
  pIC50: < 4.40
PC-3
  pIC50: < 4.40
Raji
  pIC50: 4.86
SHP-77
  pIC50: < 4.40
SJRH30
  pIC50: < 4.40
SJSA1
  pIC50: 6.67
SNU-16
  pIC50: 4.55
SW1463
  pIC50: < 4.40
SW403
  pIC50: < 4.40
SW48
  pIC50: 5.96
SW579
  pIC50: < 4.40
U-138MG
  pIC50: < 4.40
YAPC
  pIC50: < 4.40

## CC1(C)CCC2(CC1)N[C@@H](C(=O)N[C@@H]1CC[C@@H](C(N)=O)OC1)[C@H](c1ccnc(Cl)c1F)[C@]21C(=O)Nc2cc(Cl)ccc21 [Compound B, (3′R,4′S,5′R)—N-[(3R,6S)-6-carbamoyltetrahydro-2H-pyran-3-yl]-6″-chloro-4′-(2-chloro-3-fluoropyridin-4-yl)-4,4-dimethyl-2″-oxo-1″,2″-dihydrodispiro[cyclohexane-1,2′-pyrrolidine-3′,3″-indole]-5′-carboxamide]
A375
  pIC50: 7.36
BC-1
  pIC50: 7.13
BT-549
  pIC50: < 5.00
BT474
  pIC50: < 5.00
C-4 II
  pIC50: 5.04
CCF-STTG1
  pIC50: 7.07
CML-T1
  pIC50: 7.22
Capan-2
  pIC50: < 5.00
ChaGoK1
  pIC50: < 5.00
Colo 205
  pIC50: 5.02
EB-3
  pIC50: < 5.00
EM-2
  pIC50: < 5.00
ES-2
  pIC50: 5.20
HLE
  pIC50: < 5.00
HT-1197
  pIC50: 6.87
Hs 294T
  pIC50: 5.49
HuP-T4
  pIC50: < 5.00
KATO III
  pIC50: < 5.00
KLE
  pIC50: < 5.00
KPL-1
  pIC50: 7.51
LNCaP
  pIC50: 7.19
MC-IXC
  pIC50: 5.06
MEG01
  pIC50: 5.01
MT-3
  pIC50: 6.79
MV-4-11
  pIC50: 7.60
OCUG-1
  pIC50: < 5.00
PC-3
  pIC50: < 5.00
Raji
  pIC50: 5.27
SHP-77
  pIC50: 5.08
SJRH30
  pIC50: 5.14
SJSA1
  pIC50: 7.58
SNU-16
  pIC50: 5.00
SW1463
  pIC50: < 5.00
SW403
  pIC50: < 5.00
SW48
  pIC50: 6.90
SW579
  pIC50: 5.02
U-138MG
  pIC50: < 5.00
YAPC
  pIC50: < 5.00
